Reference: PubChem BioAssay (NCI)
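Tested at 5 concentrations; 48 h exposure; 96-well plates; endpoints linearly interpolated, else capped at highest concentration. GI50 is the concentration that inhibits growth by half. TGI: total growth inhibition.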

Key:
Test in all cases: NCI tumour cell line growth inhibition, 48 h
HOP-18 NSCLC = tested on: HOP-18 NSCLC
DMS 273 small cell lung = tested on: DMS 273 small cell lung
M19-MEL melanoma = tested on: M19-MEL melanoma
MDA-N = tested on: MDA-N
KM20L2 colon = tested on: KM20L2 colon
DLD-1 colon = tested on: DLD-1 colon
DMS 114 small cell lung = tested on: DMS 114 small cell lung
XF 498 CNS = tested on: XF 498 CNS
RXF-631 renal = tested on: RXF-631 renal
P388/ADR leukemia = tested on: P388/ADR leukemia
SN12K1 renal = tested on: SN12K1 renal

SMILES	TGI (HOP-18 NSCLC)	TGI (DMS 273 small cell lung)	TGI (M19-MEL melanoma)	TGI (MDA-N)	TGI (KM20L2 colon)	TGI (DLD-1 colon)	TGI (DMS 114 small cell lung)	TGI (XF 498 CNS)	TGI (RXF-631 renal)	also measured
CCC[CH2][Sn]1([CH2]CCC)[O]C(=O)c2ccc(N)cc2[O]1	2.18 µM	2.56 µM	1.66 µM	1.97 µM	3.17 µM	–	–	–	–	GI50 (HOP-18 NSCLC): 0.997 µM; GI50 (DMS 273 small cell lung): 1.04 µM; GI50 (MDA-N): 0.668 µM; GI50 (KM20L2 colon): 1.57 µM
CCCCCCCCCCCCCC(=O)NCC(OCC)OCC	> 100 µM	> 100 µM	> 100 µM	–	> 100 µM	> 100 µM	> 100 µM	> 100 µM	–	–
Clc1ccc2ns[s+]c2c1	> 100 µM	> 100 µM	> 100 µM	> 100 µM	> 100 µM	> 100 µM	> 100 µM	> 100 µM	–	–
COc1ccc2ccccc2c1CN1CCOCCOCCN(Cc2c(OC)ccc3ccccc23)CCOCCOCC1	–	70.5 µM	> 100 µM	–	> 100 µM	> 100 µM	> 100 µM	> 63.2 µM	–	–
CC1=C(/C=C/C(C)=C/C=C/C(C)=C/C=C/C=C(C)/C=C/C=C(C)/C=C/C2=C(C)C(=O)C(O)CC2(C)C)C(C)(C)CC(O)C1=O (stereo not given)	> 100 µM	> 100 µM	> 100 µM	–	> 100 µM	> 100 µM	> 100 µM	–	> 100 µM	–
Nc1cc2[nH]cnc2c(=O)[nH]1	> 300 µM	> 146 µM	> 300 µM	> 300 µM	> 300 µM	> 300 µM	> 300 µM	29.4 µM	–	TGI (P388/ADR leukemia): > 300 µM; TGI (SN12K1 renal): > 300 µM
N#Cc1c(C[n+]2ccccc2)c2ccccc2oc1=O	–	> 100 µM	> 100 µM	–	> 100 µM	> 100 µM	> 100 µM	> 100 µM	–	–
O=C(O)Cc1ccccc1CCc1ccccc1Cl	> 100 µM	> 100 µM	> 100 µM	–	> 100 µM	> 100 µM	–	> 100 µM	–	–
CCOC(=O)C1=C(Nc2ccc(Cl)c(Cl)c2)OC/C1=N\NC(=O)Cc1ccccc1	> 100 µM	> 100 µM	> 100 µM	–	> 100 µM	> 100 µM	> 100 µM	> 100 µM	–	–
COC(=O)[C@]1(C)C(OC)=CC(=O)C2C1[C@H]1CCC[C@@H]21 (stereo not given in full)	> 100 µM	–	> 100 µM	–	> 100 µM	> 100 µM	> 100 µM	> 100 µM	–	–
COc1cc(/C=C/c2ccc(OC)c(OC)c2OC)cc(OC)c1OC	44.9 µM	41 µM	51 µM	–	55.3 µM	> 100 µM	60.9 µM	72.3 µM	51.2 µM	–
COC(=O)[C@]1(C)CCC[C@@]2(C)[C@@H]3C[C@@H]4[C@H]5C[C@@]3(CC[C@@H]21)C[C@@]45C	–	–	–	31.8 µM	–	–	–	–	–	–
COc1cc(C2c3cc4c(cc3[C@@H](OCCN(C)C)C3COC(=O)[C@H]23)OCO4)cc(OC)c1O (stereo not given in full)	4.36 µM	0.632 µM	3.17 µM	–	5.14 µM	5.93 µM	–	1.74 µM	1.78 µM	–
O=C1CCN2CCC(=O)c3c2c(cc2ccccc32)N1	–	> 100 µM	> 100 µM	–	> 100 µM	> 100 µM	> 100 µM	93.5 µM	–	–
C/C=C(/C)c1cnc(CC(C)C)c(=O)[nH]1	–	–	–	> 100 µM	–	–	–	–	–	–
Clc1ccc2c(c1)[nH]c1c2nc2sccn21	> 100 µM	> 100 µM	> 100 µM	–	> 100 µM	> 100 µM	> 100 µM	> 100 µM	> 100 µM	–
COc1c(Sc2ccccc2)cc(Sc2ccccc2)c2cccnc12	–	49.3 µM	94.9 µM	–	50.2 µM	> 100 µM	91.3 µM	45.6 µM	> 100 µM	–
COc1cc2c(c(OC)c1OC)-c1ccc(O)c(=O)cc1[C@@H](NC(C)=O)CC2	–	–	–	34.4 µM	–	–	–	–	–	–
Cc1cc(=O)oc2cc(OC(=O)N(CCCl)CCCl)ccc12	–	–	–	> 100 µM	–	–	–	–	–	–
CS(=O)(=O)NNS(=O)(=O)c1ccc(Cl)cc1	–	> 100 µM	> 100 µM	–	> 100 µM	> 100 µM	> 100 µM	> 100 µM	> 100 µM	–
Clc1ccc(-c2c(C3=NCCN3)nnn2-c2ccccc2)cc1	> 100 µM	> 100 µM	> 100 µM	–	> 100 µM	> 100 µM	> 100 µM	> 100 µM	–	–

SMILES	TGI (HOP-18 NSCLC)	TGI (DMS 273 small cell lung)	TGI (M19-MEL melanoma)	TGI (MDA-N)	TGI (KM20L2 colon)	TGI (DLD-1 colon)	TGI (DMS 114 small cell lung)	TGI (XF 498 CNS)	TGI (RXF-631 renal)	also measured
COc1cc(C2c3cc4c(cc3[C@@H](N(C)C)[C@H]3COC(=O)C23)OCO4)cc(OC)c1O (stereo not given in full)	–	> 100 µM	–	–	54.1 µM	> 100 µM	–	> 100 µM	> 100 µM	–
COc1ccccc1NC(=O)C1=C(C)NC(C)=C(C(=O)Nc2ccccc2OC)C1c1ccc(N(C)C)cc1	–	–	> 100 µM	–	96.8 µM	55.1 µM	65.6 µM	57.1 µM	–	–
COC(=O)c1ccc(C(=O)OC)c2nc3cc(C)ccc3nc12	> 100 µM	> 100 µM	–	–	> 100 µM	> 100 µM	> 100 µM	> 100 µM	> 100 µM	–
CN1C(=O)C2C=CC1C1CCC2N(C)C1=O (stereo not given)	> 100 µM	> 100 µM	> 100 µM	–	–	> 100 µM	> 100 µM	–	> 100 µM	–
CC(/C=C/NNC1=NC(c2ccccc2)C(c2ccccc2)=NN1)Sc1ccccc1N (stereo not given)	–	22.9 µM	28.9 µM	–	23.2 µM	21.7 µM	–	–	38.7 µM	–
COC(=O)C(=O)C(C(=O)C(N)=O)c1nc2ccc(C(=O)c3ccccc3)cc2[nH]c1=O (stereo not given)	–	–	–	> 100 µM	–	–	–	–	–	–
CC(C(=O)O)c1ccc(-c2ccccc2)c(F)c1 (stereo not given)	–	–	–	> 100 µM	–	–	–	–	–	–
C/C(=N\NC(=S)N1CCN(c2ccccn2)CC1)c1nccs1	> 90.8 µM	11.4 µM	2.34 µM	16.6 µM	–	34.4 µM	0.649 µM	32.1 µM	24.2 µM	–
NC(=O)c1csc(C2CCC(CO)O2)n1 (stereo not given)	> 100 µM	> 100 µM	> 100 µM	–	> 100 µM	–	> 100 µM	–	–	–
S=P(N1CCCC1)(N1CC1)N1CC1	> 100 µM	> 100 µM	> 100 µM	–	> 100 µM	> 100 µM	> 100 µM	> 100 µM	–	–
CN1c2ccccc2S(=O)(=O)n2c(CCc3ccccc3)nnc21	–	–	–	> 100 µM	–	–	–	–	–	–
Cc1cccc(N=C2NC(=O)C(CC(=O)Nc3ccc(C)cc3C)S2)c1 (stereo not given)	–	> 100 µM	> 100 µM	–	> 100 µM	> 100 µM	> 100 µM	> 100 µM	–	–
O=c1cc(-c2ccccn2)[nH]c2cc(F)ccc12	> 100 µM	–	> 100 µM	–	> 100 µM	> 100 µM	> 100 µM	–	> 100 µM	GI50 (DMS 114 small cell lung): 52.4 µM
C[C@]12CC[C@H]3[C@@H](CC[C@]4(O)C[C@@H](O)CC[C@]34CO)[C@@]1(O)CC[C@@H]2C1=CC(=O)OC1	–	–	–	14.4 µM	–	–	–	–	–	–
CC1(O)CCC2(C)C(=O)C1(C)CCC21OCCO1 (stereo not given)	> 100 µM	> 100 µM	> 100 µM	–	–	> 100 µM	> 100 µM	> 100 µM	–	–
NNS(=O)(=O)c1cc(C(=O)O)cc(C(=O)O)c1	–	–	–	> 100 µM	–	–	–	–	–	–
COC(=O)[C@H]1N[C@@H](C(=O)OC)C23CCC[C@H]2CC[C@]1(C(OC)OC)C3	> 100 µM	> 100 µM	> 100 µM	–	> 100 µM	> 100 µM	> 100 µM	> 100 µM	–	–
Cc1c(C(=O)CC(=O)C(=O)Nc2cc(Cl)ccc2Cl)[n+](=O)c2ccccc2n1[O-]	> 100 µM	69.4 µM	59.1 µM	–	> 100 µM	–	61.3 µM	> 100 µM	–	–
CC1=NOC(=O)C1N=Nc1ccc(Br)c(C)c1 (stereo not given)	19.8 µM	45.6 µM	35.6 µM	–	> 100 µM	63.1 µM	29.3 µM	31.7 µM	–	–
Nc1ccc(C(=O)CC2(O)C(=O)Nc3c(Cl)cc(Cl)cc32)cc1 (stereo not given)	> 100 µM	–	> 100 µM	–	> 100 µM	> 100 µM	–	–	79.8 µM	–
COC(=O)C(CC(=O)c1c[nH]c2ccccc12)c1c[nH]c2ccccc12 (stereo not given)	–	27.6 µM	> 10 µM	–	34 µM	> 100 µM	39.4 µM	31.8 µM	31.5 µM	–
